Test results: patent publication US8580710B2, “Pesticidal active mixtures comprising aminothiazoline compounds” (BASF SE, priority 2008, dated 2013)
Where “and” joins values, the source holds several entries; their conditions need not be identical. Equal entries are not always repeated.

Assays:
[1] = system: vetch aphid (Megoura viciae); test: Test B.1: control of vetch aphid on broad bean leaf disks, contact or systemic; format: in vivo; details: sprayed on leaf disks, 5 days
Procedure: For evaluating control of vetch aphid (Megoura viciae) through contact or systemic means the test unit consisted of 24-well-microtiter plates containing broad bean leaf disks.
The compounds or mixtures were formulated using a solution containing 75 wt % water and 25 wt % DMSO. Different concentrations of formulated compounds or mixtures were sprayed onto the leaf disks at 2.5 μl, using a custom built micro atomizer, at two replications.
(§1) For experimental mixtures in these tests identical volumes of both mixing partners at the desired concentrations respectively, were mixed together.
After application, the leaf disks were air-dried and 5-8 adult aphids placed on the leaf disks inside the microtiter plate wells. The aphids were then allowed to suck on the treated leaf disks and incubated at 23±1° C., 50±5% RH (relative humidity) for 5 days. Aphid mortality and fecundity was then visually assessed.

[2] = system: green peach aphid (Myzus persicae); test: Test B.2: control of green peach aphid through systemic means, artificial diet under membrane; format: in vivo; details: 3 days
Source text: For evaluating control of green peach aphid (Myzus persicae) through systemic means the test unit consisted of 96-well-microtiter plates containing liquid artificial diet under an artificial membrane.
The compounds or mixtures were formulated using a solution containing 75 wt % water and 25 wt % DMSO. Different concentrations of formulated compounds or mixtures were pipetted into the aphid diet, using a custom built pipetter, at two replications.
as §1
After application, 5-8 adult aphids were placed on the artificial membrane inside the microtiter plate wells. The aphids were then allowed to suck on the treated aphid diet and incubated at 23±1° C., 50±5% RH for 3 days. Aphid mortality and fecundity was then visually assessed. In all cases, a synergistic control effect according to Colby's equation was observed.

[3] = system: boll weevil (Anthonomus grandis); test: Test B.3: control of boll weevil, insect diet with eggs; format: in vivo; details: sprayed on insect diet, 5 days
Procedure: For evaluating control of boll weevil (Anthonomus grandis) the test unit consisted of 24-well-microtiter plates containing an insect diet and 20-30 A. grandis eggs.
The compounds or mixtures were formulated using a solution containing 75 wt % water and 25 wt % DMSO. Different concentrations of formulated compounds or mixtures were sprayed onto the insect diet at 20 μl, using a custom built micro atomizer, at two replications.
as §1
After application, microtiter plates were incubated at 23±1° C., 50±5% RH for 5 days. Egg and larval mortality was visually assessed.

[4] = system: tobacco budworm (Heliothis virescens); test: Test B.5: control of tobacco budworm, insect diet with eggs; format: in vivo; details: 5 days
Procedure: For evaluating control of tobacco budworm (Heliothis virescens) the test unit consisted of 96-well-microtiter plates containing an insect diet and 15-25 H. virescens eggs.
The compounds or mixtures were formulated using a solution containing 75 wt % water and 25 wt % DMSO. Different concentrations of formulated compounds or mixtures were sprayed onto the insect diet at 10 μl, using a custom built micro atomizer, at two replications.
as §1
(§2) After application, microtiter plates were incubated at 28±1° C., 80±5% RH for 5 days. Egg and larval mortality was visually assessed.

[5] = system: Mediterranean fruitfly (Ceratitis capitata); test: Test B.4: control of Mediterranean fruitfly, insect diet with eggs; format: in vivo; details: 5 days
Procedure: For evaluating control of Mediterranean fruitfly (Ceratitis capitata) the test unit consisted of 96-well-microtiter plates containing an insect diet and 50-80 C. capitata eggs.
The compounds or mixtures were formulated using a solution containing 75 wt % water and 25 wt % DMSO. Different concentrations of formulated compounds or mixtures were sprayed onto the insect diet at 5 μl, using a custom built micro atomizer, at two replications.
as §1, §2

[6] = 4 ppm in aphid diet, mortality and fecundity
[7] = 100 ppm sprayed onto insect diet
[8] = 0.4 ppm sprayed onto insect diet
[9] = 10 ppm sprayed onto insect diet
[10] = 40 ppm sprayed onto insect diet

CCOC(=O)OC1=C(c2cc(C)ccc2C)C(=O)N[C@]12CC[C@@H](OC)CC2 [spirotetramat]
Average Control ([1]; 0.8 ppm): 0% | Average Control [%] [2, 6]: 0% | Average Control [%] ([2]; 20 ppm in aphid diet): 0%

CNC(=O)c1cc(Cl)cc(C)c1NC(=O)c1cc(Br)nn1-c1ncccc1Cl [rynaxypyr]
Average Control ([1]; 0.4 ppm): 0%

CC1(C)C(C=C(Cl)Cl)C1C(=O)OC(C#N)c1cccc(Oc2ccccc2)c1 (stereo not drawn) [alphacypermethrin]
Average Control ([3]; 0.04 ppm): 25% | Average Control ([1]; 0.08 ppm): 0% | Average Control ([1]; 2 ppm): 50%

Cc1cc(C)cc(CC(NC2=NCCS2)c2cccc3c2CCC3)c1 (stereo not drawn)
melting point: 120 to 124 °C

N#CCNC(=O)c1cnccc1C(F)(F)F [flonicamid]
Average Control ([3]; 100 ppm): 0% | Average Control ([1]; 0.8 ppm): 0% | Average Control [%] [4, 7]: 0% | Average Control [%] [2, 6]: 0%

N#Cc1nn(-c2c(Cl)cc(C(F)(F)F)cc2Cl)c(N)c1[S+]([O-])C(F)(F)F (stereo not drawn) [fipronil]
Average Control [%] [5, 8]: 25% | Average Control [%] ([2]; 2 ppm in aphid diet): 50%

Cc1cc(C)cc(CC(N=C2NCCS2)c2cccc3c2OCC3)c1 (stereo not drawn) [compound C.I-47]
Average Control ([1]; 0.16 ppm): 0% | Average Control ([1]; 0.8 ppm): 50% | Average Control [%] ([4]; 4 ppm sprayed onto insect diet, egg and larval mortality): 0% | Average Control [%] ([2]; 0.8 ppm in aphid diet): 0% | Average Control [%] [2, 6]: 25% and 50%

Cc1cc(C)cc(CC(N=C2NCCS2)c2cccc3c2OCCO3)c1 (stereo not drawn) [compound C.I-27]
Average Control ([3]; 0.16 ppm): 0% | Average Control ([3]; 0.8 ppm): 0% | Average Control ([3]; 20 ppm): 0% | Average Control ([3]; 100 ppm): 0% | Average Control ([1]; 0.16 ppm): 0% | Average Control [%] [4, 7]: 0% | Average Control [%] ([5]; 0.16 ppm sprayed onto insect diet): 0% | Average Control [%] ([5]; 20 ppm sprayed onto insect diet): 0% | Average Control [%] ([5]; 100 ppm sprayed onto insect diet, egg and larval mortality): 0% | Average Control [%] ([2]; 0.16 ppm in aphid diet): 0% | Average Control [%] [2, 6]: 0% | Average Control [%] ([2]; 20 ppm in aphid diet): 0%

CNC(=O)c1cc(C#N)cc(C)c1NC(=O)c1cc(Br)nn1-c1ncccc1Cl [cyazypyr]
Average Control ([3]; 0.4 ppm): 0% | Average Control ([1]; 0.4 ppm): 0% | Average Control [%] [4, 8]: 0% | Average Control [%] [5, 9]: 50%

Cc1cc(C)cc(CC(NC2=NCCS2)c2cccc3c2C(C)(C)C(=O)N3C)c1 (stereo not drawn)
melting point: 270 to 272 °C

Cc1cc(C)cc(CC(NC2=NCCS2)c2cccc3c2CCCC3)c1 (stereo not drawn)
melting point: 139 to 141 °C

abamectin
Average Control ([3]; 0.016 ppm): 25% | Average Control ([1]; 0.08 ppm): 0% | Average Control [%] ([5]; 0.016 ppm sprayed onto insect diet): 0% | Average Control [%] ([2]; 0.016 ppm in aphid diet): 0% | Average Control [%] ([2]; 0.08 ppm in aphid diet): 0%

Cc1cc(C)cc(CC(NC2=NCCS2)c2cccc3cccnc23)c1 (stereo not drawn)
melting point: 95 to 96 °C

CN1COCN(Cc2cnc(Cl)s2)/C1=N\[N+](=O)[O-] [thiamethoxam]
Average Control ([3]; 2 ppm): 25% | Average Control [%] [5, 9]: 25%

CC(C)(C)c1ccc(CSc2cnn(C(C)(C)C)c(=O)c2Cl)cc1 [pyridaben]
Average Control ([3]; 8 ppm): 50% | Average Control [%] [4, 10]: 0% | Average Control [%] [5, 10]: 25%

O=[N+]([O-])NC1=NCCN1Cc1ccc(Cl)nc1 [imidacloprid]
Average Control ([1]; 0.016 ppm): 0% | Average Control ([1]; 2 ppm): 50% | Average Control [%] ([2]; 0.4 ppm in aphid diet): 50%
